Test results from ChEMBL document CHEMBL1671654, “In vivo activity of the pyrrolopyrazolyl-substituted oxazolidinone RWJ-416457” (Antimicrob Agents Chemother, 2009).
In brackets after ≈: the same amount, converted by molar mass. Activity calls are given as the source filed them. The rule behind the calls is not given here.

How the values were obtained:
Staphylococcus aureus [1] = test: Antibacterial activity against methicillin-susceptible Staphylococcus aureus ATCC 13709 infected in sc dosed Swiss Webster mouse administered at 1 to 3 hrs post infection measured after 3 days; assay type: functional; settings: ATCC 13709, sc
Staphylococcus aureus [2] = test: Antibacterial activity against community-associated methicillin-resistant Staphylococcus aureus OC8525 infected in iv dosed Swiss Webster mouse administered at 1 to 3 hrs post infection measured after 3 days; assay type: functional
Staphylococcus aureus [3] = test: Bacteriostatic activity against methicillin-susceptible Staphylococcus aureus Smith ATCC 13709 infected in SKH1 mouse upto 25 mg/kg/day, sc administered post infection measured after 48 hrs; assay type: functional, organism-based
Staphylococcus aureus [4] = test: Antibacterial activity against community-associated methicillin-resistant Staphylococcus aureus OC8525 infected in sc dosed Swiss Webster mouse administered at 1 to 3 hrs post infection measured after 3 days; assay type: functional
Staphylococcus aureus [5] = test: Antibacterial activity against methicillin-susceptible Staphylococcus aureus ATCC 13709 infected in iv dosed Swiss Webster mouse administered at 1 to 3 hrs post infection measured after 3 days; assay type: functional; settings: ATCC 13709, iv
Staphylococcus aureus [6] = test: Antibacterial activity against community-associated methicillin-resistant Staphylococcus aureus OC8525 infected in SKH1 mouse assessed as log reduction in CFU/g skin up to 25 mg/kg/day, sc administered post infection measured after 48 hrs; assay type: functional, organism-based
[7] = Ratio of fAUC (24 hrs) for community-associated methicillin-resistant Staphylococcus aureus OC8525 infected po dosed mouse to MIC for community-associated methicillin-resistant Staphylococcus aureus OC8525; assay type: functional
Mus musculus [8] = test: fAUC (0 to 24 hrs) in CF-1 mouse at 2 mg/kg, iv; assay type: ADME, organism-based; set-up: dose 2 mg/kg, route intravenous; settings: in vivo
[9] = Ratio of fAUC (24 hrs) for Methicillin-susceptible Staphylococcus aureus ATCC 13709 infected po dosed mouse to MIC for Methicillin-susceptible Staphylococcus aureus ATCC 1370; assay type: functional
[10] = Half life in CF-1 mouse at 2 mg/kg, iv; assay type: ADME, organism-based; set-up: dose 2 mg/kg, route intravenous; settings: in vivo
Staphylococcus aureus [11] = test: Antibacterial activity against Methicillin-susceptible Staphylococcus aureus ATCC 13709 after 16 to 20 hrs by broth microdilution method relative to Linezolid; assay type: functional
[12] = Apparent oral clearance in CF-1 mouse at 10 mg/kg, po; assay type: ADME, organism-based; set-up: dose 10 mg/kg, route oral; settings: in vivo
Mus musculus [13] = test: fCmax in CF-1 mouse at 10 mg/kg, po; assay type: ADME, organism-based; set-up: dose 10 mg/kg, route oral; settings: in vivo
Staphylococcus aureus [14] = test: Antibacterial activity against Methicillin-susceptible Staphylococcus aureus ATCC 13709 after 16 to 20 hrs by broth microdilution method; assay type: functional
[15] = AUC (0 to 24 hrs) in CF-1 mouse at 10 mg/kg, sc; assay type: ADME, organism-based; set-up: time < 24 hr, dose 10 mg/kg, route subcutaneous; settings: plasma
Staphylococcus aureus [16] = test: Antibacterial activity against community-associated methicillin-resistant Staphylococcus aureus OC8525 infected in po dosed Swiss Webster mouse administered at 1 to 3 hrs post infection measured after 3 days; assay type: functional
Streptococcus pneumoniae [17] = test: Antibacterial activity against penicillin-susceptible Streptococcus pneumoniae ATCC 6301 after 16 to 20 hrs by broth microdilution method; assay type: functional
[18] = Apparent oral clearance in CF-1 mouse at 10 mg/kg, sc; assay type: ADME, organism-based; set-up: dose 10 mg/kg, route oral; settings: in vivo
Staphylococcus aureus [19] = test: Antibacterial activity against Methicillin-resistant Staphylococcus aureus assessed as skin lesion size; assay type: functional
[20] = Tmax in CF-1 mouse serum at 10 mg/kg, po; assay type: ADME, organism-based; set-up: dose 10 mg/kg, route oral
Streptococcus pneumoniae [21] = test: Antibacterial activity against penicillin-susceptible Streptococcus pneumoniae ATCC 6301 infected in iv dosed Swiss Webster mouse administered at 1 to 3 hrs post infection measured after 3 days; assay type: functional; settings: ATCC 6301, iv
Staphylococcus aureus [22] = test: Antibacterial activity against community-associated methicillin-resistant Staphylococcus aureus OC8525 infected in SKH1 mouse assessed as log reduction in CFU/g skin at 5 mg/kg/day, po administered post infection measured after 48 hrs; assay type: functional, organism-based
[23] = Half life in CF-1 mouse at 10 mg/kg, sc; assay type: ADME, organism-based; set-up: dose 10 mg/kg, route subcutaneous; settings: in vivo
[24] = Ratio of fAUC (24 hrs) for penicillin-susceptible Streptococcus pneumoniae ATCC 6301 infected po dosed mouse to MIC for penicillin-susceptible Streptococcus pneumoniae ATCC 6301; assay type: functional
Streptococcus pneumoniae [25] = test: Antibacterial activity against penicillin-susceptible Streptococcus pneumoniae ATCC 6301 infected in sc dosed Swiss Webster mouse administered at 1 to 3 hrs post infection measured after 3 days; assay type: functional; settings: ATCC 6301, sc
Mus musculus [26] = test: fAUC (0 to 24 hrs) in CF-1 mouse at 10 mg/kg, sc; assay type: ADME, organism-based; set-up: dose 10 mg/kg, route subcutaneous; settings: in vivo
[27] = Clearance in CF-1 mouse at 2 mg/kg, iv; assay type: ADME, organism-based; set-up: dose 2 mg/kg, route intravenous; settings: in vivo
[28] = Ratio of fAUC (24 hrs) for penicillin-susceptible Streptococcus pneumoniae ATCC 6301 infected iv dosed mouse to MIC for penicillin-susceptible Streptococcus pneumoniae ATCC 6301; assay type: functional
Mus musculus [29] = test: fAUC (0 to 24 hrs) in CF-1 mouse at 10 mg/kg, po; assay type: ADME, organism-based; set-up: dose 10 mg/kg, route oral; settings: in vivo
Staphylococcus aureus [30] = test: Antibacterial activity against methicillin-susceptible Staphylococcus aureus Smith ATCC 13709 infected in SKH1 mouse assessed as log reduction in CFU/g skin at => 80 mg/kg/day, po administered post infection measured after 48 hrs; assay type: functional
Staphylococcus aureus [31] = test: Antibacterial activity against Methicillin-susceptible Staphylococcus aureus assessed as skin lesion size; assay type: functional
[32] = Ratio of fAUC (24 hrs) for Methicillin-susceptible Staphylococcus aureus ATCC 13709 infected sc dosed mouse to MIC for Methicillin-susceptible Staphylococcus aureus ATCC 1370; assay type: functional
[33] = Ratio of fAUC (24 hrs) for community-associated methicillin-resistant Staphylococcus aureus OC8525 infected iv dosed mouse to MIC for community-associated methicillin-resistant Staphylococcus aureus OC8525; assay type: functional
Staphylococcus aureus [34] = test: Antibacterial activity against community-associated methicillin-resistant Staphylococcus aureus OC8525 after 16 to 20 hrs by broth microdilution method; assay type: functional
Mus musculus [35] = test: fCmax in CF-1 mouse at 10 mg/kg, sc; assay type: ADME, organism-based; set-up: dose 10 mg/kg, route subcutaneous; settings: in vivo
[36] = Tmax in CF-1 mouse serum at 10 mg/kg, sc; assay type: ADME, organism-based; set-up: dose 10 mg/kg, route subcutaneous
[37] = Ratio of fAUC (24 hrs) for Methicillin-susceptible Staphylococcus aureus ATCC 13709 infected iv dosed mouse to MIC for Methicillin-susceptible Staphylococcus aureus ATCC 1370; assay type: functional
[38] = Cmax in CF-1 mouse at 10 mg/kg, po; assay type: ADME, organism-based; set-up: dose 10 mg/kg, route oral; settings: in vivo
[39] = Ratio of fAUC (24 hrs) for community-associated methicillin-resistant Staphylococcus aureus OC8525 infected sc dosed mouse to MIC for community-associated methicillin-resistant Staphylococcus aureus OC8525; assay type: functional
[40] = Ratio of fAUC (24 hrs) for penicillin-susceptible Streptococcus pneumoniae ATCC 6301 infected sc dosed mouse to MIC for penicillin-susceptible Streptococcus pneumoniae ATCC 6301; assay type: functional
[41] = Half life in CF-1 mouse at 10 mg/kg, po; assay type: ADME, organism-based; set-up: dose 10 mg/kg, route oral; settings: in vivo
Staphylococcus aureus [42] = test: Antibacterial activity against methicillin-susceptible Staphylococcus aureus ATCC 13709 infected in po dosed Swiss Webster mouse administered at 1 to 3 hrs post infection measured after 3 days; assay type: functional; settings: ATCC 13709, po
Streptococcus pneumoniae [43] = test: Antibacterial activity against penicillin-susceptible Streptococcus pneumoniae ATCC 6301 after 16 to 20 hrs by broth microdilution method relative to Linezolid; assay type: functional
[44] = AUC (0 to 24 hrs) in CF-1 mouse at 10 mg/kg, po; assay type: ADME, organism-based; set-up: time < 24 hr, dose 10 mg/kg, route oral; settings: plasma
Staphylococcus aureus [45] = test: Antibacterial activity against community-associated methicillin-resistant Staphylococcus aureus OC8525 infected in SKH1 mouse assessed as log reduction in CFU/g skin up to 320 mg/kg/day, po administered post infection measured after 48 hrs; assay type: functional
Streptococcus pneumoniae [46] = test: Antibacterial activity against penicillin-susceptible Streptococcus pneumoniae ATCC 6301 infected in po dosed Swiss Webster mouse administered at 1 to 3 hrs post infection measured after 3 days; assay type: functional; settings: ATCC 6301, po
[47] = Cmax in CF-1 mouse at 10 mg/kg, sc; assay type: ADME, organism-based; set-up: dose 10 mg/kg, route subcutaneous; settings: in vivo
[48] = Cmax in CF-1 mouse at 2 mg/kg, iv; assay type: ADME, organism-based; set-up: dose 2 mg/kg, route intravenous; settings: in vivo
Staphylococcus aureus [49] = test: Bacteriostatic activity against methicillin-susceptible Staphylococcus aureus Smith ATCC 13709 infected in SKH1 mouse at 20 mg/kg/day, po administered post infection measured after 48 hrs; assay type: functional, organism-based
Mus musculus [50] = test: fCmax in CF-1 mouse at 2 mg/kg, iv; assay type: ADME, organism-based; set-up: dose 2 mg/kg, route intravenous; settings: in vivo
[51] = AUC (0 to 24 hrs) in CF-1 mouse at 2 mg/kg, iv; assay type: ADME, organism-based; set-up: time < 24 hr, dose 2 mg/kg, route intravenous; settings: plasma
Staphylococcus aureus [52] = test: Antibacterial activity against methicillin-susceptible Staphylococcus aureus Smith ATCC 13709 infected in SKH1 mouse assessed as log reduction in CFU/g skin at 5 mg/kg/day, po administered post infection measured after 48 hrs; assay type: functional, organism-based
Streptococcus pneumoniae [53] = test: Antibacterial activity against penicillin-susceptible Streptococcus pneumoniae ATCC 6301 infected in po dosed CF-1 mouse administered at 24 hrs post infection measured after 48 hrs relative to Linezolid; assay type: functional

## CN[C@H](CC(C)C)C(=O)N[C@H]1C(=O)N[C@@H](CC(N)=O)C(=O)N[C@H]2C(=O)N[C@H]3C(=O)N[C@H](C(=O)N[C@H](C(=O)O)c4cc(O)cc(O)c4-c4cc3ccc4O)[C@H](O)c3ccc(c(Cl)c3)Oc3cc2cc(c3O[C@@H]2O[C@H](CO)[C@@H](O)[C@H](O)[C@H]2O[C@H]2C[C@](C)(N)[C@H](O)[C@H](C)O2)Oc2ccc(cc2Cl)[C@H]1O [VANCOMYCIN]
Staphylococcus aureus [1]
  ED50: 1.7 mg/kg/day
Staphylococcus aureus [2]
  ED50: 5.6 mg/kg/day
Staphylococcus aureus [3]
  Activity: Active
Staphylococcus aureus [4]
  ED50: 12 mg/kg/day
Staphylococcus aureus [5]
  ED50: 0.9 mg/kg/day
Staphylococcus aureus [6]
  Activity: inactive

## CC(=O)NC[C@H]1CN(c2ccc(N3Cc4cn(C)nc4C3)c(F)c2)C(=O)O1
[7]
  fAUC/MIC: 6.3
Staphylococcus aureus [1]
  ED50: 4.7 mg/kg/day
Mus musculus [8]
  fAUC: 1700 ng·h/mL
[9]
  fAUC/MIC: 13
[10]
  half-life: 1.5 h
Staphylococcus aureus [2]
  ED50: 1.5 mg/kg/day
Staphylococcus aureus [11]
  fold change (FC): 2
[12]
  CL/F: 7.17 mL/min/kg
Mus musculus [13]
  fCmax: 1.9 µg/mL
Staphylococcus aureus [14]
  MIC: 1 µg/mL (≈ 2.68 µM)
[15]
  AUC(0-t) at 24 h: 15000 ng·h/mL
Staphylococcus aureus [16]
  ED50: 2.1 mg/kg/day
Streptococcus pneumoniae [17]
  MIC: 1 µg/mL (≈ 2.68 µM)
[18]
  CL/F: 10.8 mL/min/kg
Staphylococcus aureus [19]
  Activity: 23%
[20]
  Tmax: 2 h
Streptococcus pneumoniae [21]
  ED50: 18 mg/kg/day
Staphylococcus aureus [22]
  Activity: inactive
[23]
  half-life: 2 h
[24]
  fAUC/MIC: 13
Streptococcus pneumoniae [25]
  ED50: 9.3 mg/kg/day
Mus musculus [26]
  fAUC: 8300 ng·h/mL
[27]
  clearance: 10.5 mL/min/kg
[28]
  fAUC/MIC: 8.6
Mus musculus [29]
  fAUC: 13000 ng·h/mL
Staphylococcus aureus [30]
  FC: 0.9
Staphylococcus aureus [4]
  ED50: 3.5 mg/kg/day
Staphylococcus aureus [31]
  Activity: 14%
[32]
  fAUC/MIC: 8.3
[33]
  fAUC/MIC: 4.3
Staphylococcus aureus [34]
  MIC: 2 µg/mL (≈ 5.36 µM)
Mus musculus [35]
  fCmax: 4.1 µg/mL
Staphylococcus aureus [5]
  ED50: 4 mg/kg/day
[36]
  Tmax: 0.5 h
[37]
  fAUC/MIC: 8.6
[38]
  Cmax: 3500 ng/mL
[39]
  fAUC/MIC: 4.1
[40]
  fAUC/MIC: 8.3
[41]
  half-life: 3.4 h
Staphylococcus aureus [42]
  ED50: 3.4 mg/kg/day
Streptococcus pneumoniae [43]
  fold change (FC): 2
[44]
  AUC(0-t) at 24 h: 23000 ng·h/mL
Staphylococcus aureus [45]
  FC: 1
Streptococcus pneumoniae [46]
  ED50: 3.1 mg/kg/day
[47]
  Cmax: 7500 ng/mL
[48]
  Cmax: 4400 ng/mL
Staphylococcus aureus [49]
  Activity: Active
Mus musculus [50]
  fCmax: 2.4 µg/mL
[51]
  AUC(0-t) at 24 h: 3200 ng·h/mL
Staphylococcus aureus [52]
  Activity: inactive
Streptococcus pneumoniae [53]
  fold change (FC): 2
Streptococcus pneumoniae [53]; Streptococcus pneumoniae, ATCC 6301, po
  ED50: 3.1 mg/kg/day
